Assay results as given in PMC4310350 (Drug Design, Development and Therapy, 2015).
Entries after “also recorded” stand apart in the source; their conditions may differ. Where two headings read alike, the source gives them in different places.

Key:
BCRP [1] = molecular target: T1, BCRP (Homo sapiens, UniProt Q9UNQ0); assay: A-to-B and B-to-A transport in LLC-PK1 cells overexpressing BCRP; assay type: in vitro ADME; settings: BCRP, efflux
T1 sequence (Q9UNQ0 1-655): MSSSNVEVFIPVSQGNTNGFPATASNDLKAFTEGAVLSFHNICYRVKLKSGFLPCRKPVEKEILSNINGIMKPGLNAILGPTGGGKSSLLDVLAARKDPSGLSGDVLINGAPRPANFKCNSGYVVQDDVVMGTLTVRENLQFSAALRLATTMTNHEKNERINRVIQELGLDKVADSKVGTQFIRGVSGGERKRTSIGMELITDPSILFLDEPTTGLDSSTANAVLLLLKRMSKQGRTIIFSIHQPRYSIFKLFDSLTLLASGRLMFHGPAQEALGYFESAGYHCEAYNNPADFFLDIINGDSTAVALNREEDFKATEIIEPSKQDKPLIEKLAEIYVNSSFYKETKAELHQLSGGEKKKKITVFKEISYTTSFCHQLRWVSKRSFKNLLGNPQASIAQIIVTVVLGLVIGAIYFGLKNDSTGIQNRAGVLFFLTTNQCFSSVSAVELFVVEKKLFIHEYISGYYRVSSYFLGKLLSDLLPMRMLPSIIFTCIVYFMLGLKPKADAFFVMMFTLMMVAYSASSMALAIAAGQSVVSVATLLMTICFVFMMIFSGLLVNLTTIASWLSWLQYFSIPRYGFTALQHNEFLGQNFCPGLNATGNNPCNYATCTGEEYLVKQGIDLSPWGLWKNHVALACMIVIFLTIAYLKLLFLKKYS

OCT1 = molecular target: T2, OCT1 (Homo sapiens, UniProt O15245); assay: Inhibitory effect of catalposide on OCT1 transport activity; assay type: in vitro ADME; settings: probe 0.1 μM [3H]MPP+, catalposide 0–100 μM
T2 sequence (O15245 1-554): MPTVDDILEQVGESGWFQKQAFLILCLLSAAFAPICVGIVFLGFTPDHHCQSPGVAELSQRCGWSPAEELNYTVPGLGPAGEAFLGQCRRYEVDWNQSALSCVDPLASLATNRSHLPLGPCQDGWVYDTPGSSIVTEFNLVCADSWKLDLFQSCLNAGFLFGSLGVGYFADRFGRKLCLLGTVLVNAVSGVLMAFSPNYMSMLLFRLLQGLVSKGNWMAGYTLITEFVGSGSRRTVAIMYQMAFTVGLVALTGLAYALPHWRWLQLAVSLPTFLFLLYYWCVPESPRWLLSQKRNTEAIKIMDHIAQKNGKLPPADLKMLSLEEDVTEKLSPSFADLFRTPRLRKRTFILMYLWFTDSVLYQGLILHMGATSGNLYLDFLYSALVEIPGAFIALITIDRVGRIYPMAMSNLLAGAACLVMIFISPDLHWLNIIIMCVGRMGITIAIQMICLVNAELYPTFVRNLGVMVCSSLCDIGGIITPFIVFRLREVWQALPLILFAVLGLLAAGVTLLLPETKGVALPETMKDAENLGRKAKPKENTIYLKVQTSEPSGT

OCT2 = molecular target: T3, OCT2 (Homo sapiens, UniProt O15244); assay: Inhibitory effect of catalposide on OCT2 transport activity; assay type: in vitro ADME; settings: probe 0.1 μM [3H]MPP+, catalposide 0–100 μM
T3 sequence (O15244 1-555): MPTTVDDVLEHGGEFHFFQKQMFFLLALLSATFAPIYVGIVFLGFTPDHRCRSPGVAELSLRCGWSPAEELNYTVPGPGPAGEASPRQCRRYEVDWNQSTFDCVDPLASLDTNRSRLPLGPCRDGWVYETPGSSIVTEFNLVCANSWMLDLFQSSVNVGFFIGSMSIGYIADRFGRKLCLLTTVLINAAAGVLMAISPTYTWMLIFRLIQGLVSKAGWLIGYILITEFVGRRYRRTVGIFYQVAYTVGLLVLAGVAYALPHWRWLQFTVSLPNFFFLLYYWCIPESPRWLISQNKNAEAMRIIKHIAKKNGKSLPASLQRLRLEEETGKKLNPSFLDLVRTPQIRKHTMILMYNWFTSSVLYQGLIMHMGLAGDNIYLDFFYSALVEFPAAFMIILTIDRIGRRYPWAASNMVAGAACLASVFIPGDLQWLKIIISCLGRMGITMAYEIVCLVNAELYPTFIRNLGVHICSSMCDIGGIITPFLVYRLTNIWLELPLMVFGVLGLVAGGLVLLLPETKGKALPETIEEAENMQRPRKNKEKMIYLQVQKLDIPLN

BCRP [2] = molecular target: T1, BCRP; assay: Inhibitory effect of catalposide on BCRP transport activity; assay type: in vitro ADME; settings: probe 0.1 μM [3H]ES, catalposide 1–100 μM
[3] = rats, cited from earlier work
[4] = 3-hour incubation in rat plasma; cited from earlier work
[5] = human liver microsomes in the presence of NADPH; cited from earlier work
[6] = tested on: suppression of cytokines, antioxidative effect, and PPAR-α activation; settings: in vitro cell system; cited from earlier work
[7] = tested on: colitis induced by trinitrobenzene sulfonic acid; settings: mice, cited from earlier work

**Q.** Which Substrate (BCRP [1]) does the source give for `O=C(O[C@H]1[C@@H]2C=CO[C@@H](O[C@@H]3O[C@H](CO)[C@@H](O)[C@H](O)[C@H]3O)[C@@H]2[C@@]2(CO)O[C@@H]12)c1ccc(O)cc1` [catalposide] here?
**A.** not involved; also recorded: not a substrate

**Q.** And the Inhibitor (OCT1)?
**A.** did not significantly inhibit

**Q.** And the Inhibitor (OCT2)?
**A.** did not significantly inhibit

**Q.** And the Inhibitor (BCRP [2])?
**A.** did not significantly inhibit

**Q.** And the “Recovery in the urine (unchanged form)” value ([3]; intravenous 10 mg/kg, % of dose)?
**A.** 9.9%

**Q.** And the Distribution volume ([3]; intravenous)?
**A.** 2657.2 ± 1396.9 mL/kg

**Q.** And the Nonrenal clearance ([3]; intravenous)?
**A.** 88.2 mL/min/kg

**Q.** What about the Renal clearance ([3]; intravenous) of the same compound?
**A.** 8.47 mL/min/kg

**Q.** And the Systemic clearance ([3]; intravenous)?
**A.** 96.7 ± 44.2 mL/min/kg

**Q.** And the Terminal half-life ([3]; intravenous)?
**A.** 19.3 ± 9.5 min

**Q.** What about the Stability [4] of the same compound?
**A.** remained stable

**Q.** What about the Stability [5] of the same compound?
**A.** remained stable

**Q.** And the Effective concentration [6]?
**A.** 0.2 to 4 µM

**Q.** What about the Histologic toxicity ([7]; 1–2.5 mg/kg) of the same compound?
**A.** without histologic toxicity

**Q.** What about the Severity of colitis ([7]; dose 0.5 mg/kg) of the same compound?
**A.** reduced the severity of colitis
